From patent publication US8133709B2, “Target sequences for synthetic molecules” (Life Technologies Corporation, priority 2003, dated 2012)

Columns and labels:
[1] = target: T1, SlyD+His tag (SlyD tetracysteine sequence) (Escherichia coli, UniProt P0A9K9); test: Specificity: labeling of a mixture of purified proteins, SDS-PAGE, laser gel scanner; type: binding; conditions: 10 μM in SDS-PAGE sample buffer; ACP:SlyD approximately 2:1; FIG. 17
T1 construct: made in house; host or cells: E. coli BL21 (DE3), pRSET vector, Ni-NTA purified
Procedure: The native SlyD sequence (SEQ. ID NO: 4) was cloned into the pRSET vector (Invitrogen, Carlsbad, Calif.) using standard molecular biology techniques. Purified protein was produced from this vector by first transforming BL21 (DE3) cells (Invitrogen, Carlsbad, Calif., Catalog #C6010-03) and plated on LB-ampicillin plates. A single colony was selected and grown in one liter of liquid LB broth to a density of 1 O.D. and 1 mM IPTG was added to induce protein expression. After three hours of protein induction the culture was harvested by centrifugation at 10,000×g for 5 minutes at 4° C. The cell pellet was resuspended in 50 mM HEPES (pH 7.5), 140 mM NaCl and sonicated on ice for a total of two minutes. The E. coli lysate was separated by centrifugation at 25,000×g for 20 minutes at 4° C. The supernatant contained the soluble protein and consequently it was loaded onto a Ni^2+-NTA column equilibrated in 50 mM HEPES (pH 7.5), 140 mM NaCl buffer. The column was washed with three column volumes of 50 mM HEPES (pH 7.5), 140 mM NaCl and non-specific binding proteins were removed by washing with 50 mM HEPES (pH 7.5), 140 mM NaCl, and 20 mM Imidazole. To elute the desired hexahistidine tagged SlyD, a solution of 50 mM HEPES (pH 7.5), 140 mM NaCl, and 250 mM Imidazole was added to the column. The protein eluted at greater than 90% purity. […]

ACP = target: T2, ACP (Escherichia coli, UniProt P0A6A8); test: as above; type: binding; conditions: 10 μM in SDS-PAGE sample buffer; ACP:SlyD approximately 2:1; FIG. 17
T2 construct: inferred for this product (C); purchased Invitrogen, Madison, Wis; P3080
Procedure: ACP (Invitrogen, Madison, Wis., Catalog #P3080) was mixed at approximately 2:1 molar ratio with SlyD-His tag. The proteins were put in SDS-PAGE sample buffer supplemented with 10 μM FlAsH-EDT2, Cy3-EDT2, or Cy5-EDT2 and electrophoresed at 150 volts on a 4-20% Tris-glycine pre-cast Novex gel (Invitrogen, Carlsbad, Calif.). Immediately following electrophoresis the gel was imaged on a Fuji Film FLA 5000 laser gel scanner. […] Therefore, the SlyD tetracysteine sequence (SEQ. ID NO: 5) uniquely binds to biarsenical molecules and not to […].

[2] = target: T3, AcpS+4Cys (SlyD tetracysteine sequence […] on AcpS) (Escherichia coli, UniProt P24224); test: FlAsH-EDT2 labeling of in vitro synthesised protein, SDS-PAGE, UV light box; type: binding; conditions: 10 μM in LDS sample buffer, 70° C. 10 minutes; compared with CCPGCC; FIG. 14
T3 construct: made in house; host or cells: Cell-free: Expressway in vitro protein synthesis kit, S30 E. coli extract, from a pRSET vector
T3 sequence (P24224 with tags, fused parts or gaps): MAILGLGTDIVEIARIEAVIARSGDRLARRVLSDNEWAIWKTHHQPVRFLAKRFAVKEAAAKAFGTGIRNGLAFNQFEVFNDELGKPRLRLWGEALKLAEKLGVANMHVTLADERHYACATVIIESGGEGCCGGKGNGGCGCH
Excerpt: A target sequence that includes the SlyD (SEQ. ID NO: 4) tetracysteine sequence, CCGGKGNGGCGC (SEQ. ID NO: 5) was introduced onto the Carboxy-terminus of Acyl Carrier Protein S (AcpS). Since AcpS has only one endogenous cysteine amino acid and since AcpS is a robust stable protein, a substitution at the Carboxy-terminus could be made without altering the solubility of the properly folded protein. […] ID NO: 6. The mutated AcpS is referred to as AcpS+4Cys. The substitutions were generated using polymerase chain reaction with primers specific for the encoding the expression of the desired tetracysteine sequence. The nucleic acid sequence encoding the cysteine substituted AcpS was inserted into the pRSET vector (Invitrogen, Carlsbad, Calif., Catalog #V351-20) using restriction sites inherent to the vector's multiple cloning site. After amplification in DH5 bacteria, the vector was expressed using in vitro transcription and translation. See also, U.S. Provisional Patent Application No. 60/614,590, filed Oct. 1, 2004 and U.S. patent application Ser. No. 10/954,951, filed Oct. 1, 2004, incorporated by reference herein in their entireties, disclosing additional compositions and methods for in vitro transcription and translation.
In vitro protein synthesis was carried out using the Expressway™ in vitro protein synthesis kit (Invitrogen, Carlsbad, Calif., Catalog #K9600-02). […]

[3] = target: T4, ACP-CCPGCC (tetracysteine version of Acyl Carrier protein) (Escherichia coli, UniProt P0A6A8); test: as above; type: binding; conditions: 10 μM in LDS sample buffer, 70° C. 10 minutes; control; FIG. 14
T4 construct: made in house; host or cells: Cell-free: Expressway in vitro protein synthesis kit (S30 E. coli extract)
Procedure: In vitro protein synthesis was carried out using the Expressway™ in vitro protein synthesis kit (Invitrogen, Carlsbad, Calif., Catalog #K9600-02). Following the manufacture's protocol 1 μg of AcpS vector DNA was added to a total volume of 50 μL of S30 E. coli extract and reaction buffer. As a control, a tetracysteine (CCPGCC) (SEQ. ID NO: 53) version of Acyl Carrier protein (ACP) (SEQ. ID NO: 7) was also expressed via the Expressway™ kit. The reaction was placed at 37° C. with 225 rpm shaking for two hours. After incubation 5 μL of RNase A was added to the reaction, after which an additional 15 minute incubation at 37° C. was performed. Protein from the in vitro protein synthesis reaction was prepared for SDS-PAGE analysis through an acetone precipitation procedure. 5 μl of reaction was added to 20 μL of 100% acetone. After mixing well the acetone solution was centrifuged for 5 minutes at room temperature in a microcentrifuge at 12,000 rpm. The supernatant was removed and the pellet was allowed to dry for 5 minutes. The pellet was resuspended in a 50 μL volume of LDS sample buffer (Invitrogen, Carlsbad, Calif., Catalog #NP0007) containing 10 μM FlAsH-EDT2. The samples were heated to 70° C. for 10 minutes and 10 μL of the samples were then loaded onto a 4-12% NUPAGE® pre-cast gel (Invitrogen, Carlsbad, Calif.) using MES running buffer. […]

SlyD+His tag = target: T5, SlyD+His tag (Escherichia coli, UniProt P0A9K9); test: Binding mode: FlAsH-EDT2 labeling of in vitro synthesised SlyD versions, SDS-PAGE; conditions: 10 μM in LDS sample buffer; FIG. 15
T5 construct: Lane 1 is full length, hexahistidine tagged SlyD (SlyD+His tag); made in house; host or cells: Cell-free: Expressway in vitro protein synthesis kit (S30 E. coli extract)
Procedure: (§1) The mode of binding of a biarsenical to a target sequence was examined using the Expressway™ in vitro protein synthesis kit (Invitrogen, Carlsbad, Calif.) and SDS-PAGE. Following the manufacture's protocol 1 μg of SlyD+His tag (SEQ. ID NO: 8), SlyD-C167A/C168A (SEQ. ID NO: 9), and SlyD-trunc171 (SEQ. ID NO: 10) vector DNAs were added to a total volume of 50 μL of S30 E. coli extract and reaction buffer. The reaction was placed at 37° C. with 225 rpm shaking for two hours. After incubation 5 μL of RNase A was added to the reaction, after which an additional 15 minute incubation at 37° C. was performed. Protein from the in vitro protein synthesis reaction was prepared for SDS-PAGE analysis through an acetone precipitation procedure. 5 μl of reaction was added to 20 μL of 100% acetone. After mixing well the acetone solution was centrifuged for 5 minutes at room temperature in a microcentrifuge at 12,000 rpm. The supernatant was removed and the pellet was allowed to dry for 5 minutes. The pellet was resuspended in a 50 μL volume of LDS sample buffer (Invitrogen, Carlsbad, Calif.) containing 10 μM FlAsH-EDT2. The samples were heated to 70° C. for 10 minutes and 10 μL of the samples were then loaded onto a 4-12% NuPAGE® pre-cast gel (Invitrogen, Carlsbad, Calif., Catalog #NP0239 Box) using MES running buffer. The gel was electrophoresed at 200 volts for about 30 minutes. Immediately following electrophoresis the gel was removed from the cassette and visualized on a UV light box.

SlyD-trunc171 = target: T6, SlyD-trunc171 (Escherichia coli, UniProt P0A9K9); test: as above; conditions: 10 μM in LDS sample buffer; FIG. 15
T6 construct: a hexahistidine tagged version of SlyD truncated after position 171 (SlyD-trunc171); made in house; host or cells: Cell-free: Expressway in vitro protein synthesis kit (S30 E. coli extract)
Procedure: as §1

SlyD-C167A/C168A = target: T7, SlyD-C167A/C168A (Escherichia coli, UniProt P0A9K9, C167A/C168A); test: as above; conditions: 10 μM in LDS sample buffer; FIG. 15
T7 construct: Lane 2 is full length, hexahistidine tagged SlyD with two point mutations; made in house; host or cells: Cell-free: Expressway in vitro protein synthesis kit (S30 E. coli extract)
Procedure: as §1

T7 sequence (P0A9K9 with tags, fused parts or gaps C167A/C168A): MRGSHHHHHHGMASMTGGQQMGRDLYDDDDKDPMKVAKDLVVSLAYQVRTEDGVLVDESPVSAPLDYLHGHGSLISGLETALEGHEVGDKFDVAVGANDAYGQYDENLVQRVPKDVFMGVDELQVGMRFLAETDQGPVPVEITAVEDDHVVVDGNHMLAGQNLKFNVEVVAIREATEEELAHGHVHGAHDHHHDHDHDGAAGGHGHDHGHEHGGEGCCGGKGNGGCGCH
T2 sequence (P0A6A8 with tags, fused parts or gaps): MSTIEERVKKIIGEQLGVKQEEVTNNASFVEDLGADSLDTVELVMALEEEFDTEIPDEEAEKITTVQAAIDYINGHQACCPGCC
T4 sequence (P0A6A8 with tags, fused parts or gaps): as above
T6 sequence (P0A9K9 with tags, fused parts or gaps): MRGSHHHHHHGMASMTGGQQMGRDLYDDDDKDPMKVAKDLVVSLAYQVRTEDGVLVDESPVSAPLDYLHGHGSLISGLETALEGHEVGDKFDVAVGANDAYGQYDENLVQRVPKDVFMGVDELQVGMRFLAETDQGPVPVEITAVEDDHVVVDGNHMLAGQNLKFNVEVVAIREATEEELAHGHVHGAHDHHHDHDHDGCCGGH
T1 sequence (P0A9K9 with tags, fused parts or gaps): as the sequence (P0A9K9 with tags, fused parts or gaps C167A/C168A) above, with A200C, A201C counted along it
T5 sequence (P0A9K9 with tags, fused parts or gaps): as the sequence (P0A9K9 with tags, fused parts or gaps C167A/C168A) above, with A200C, A201C counted along it

With `O=C(O)c1ccccc1-c1c2ccc(=O)c([As]3SCCS3)c-2oc2c([As]3SCCS3)c(O)ccc12` [FlAsH-EDT2] the “binding/labeling of SlyD+His tag” value [1] was “binds to both SlyD+His tag and ACP”, the “binding/labeling of ACP” value (ACP) was “binds to both SlyD+His tag and ACP” and the “labeling of the CCGGKGNGGCGC sequence (AcpS+4Cys)” value [2] was “equivalent labeling”. For the same compound, the “labeling of the CCPGCC sequence (ACP)” value [3] was “equivalent labeling”, the “labeling of SlyD+His tag” value (SlyD+His tag) was “identical labeling” and the “labeling of SlyD-trunc171 (only a vicinal pair of cysteines)” value (SlyD-trunc171) was “only two cysteines are required for biarsenical labeling”. The “labeling of SlyD-C167A/C168A” value (SlyD-C167A/C168A) was “identical labeling”.
